Results taken from paper PMC6661831, “Molecular docking, synthesis, kinetics study, structure–activity relationship and ADMET analysis of morin analogous as Helicobacter pylori urease inhibitors” (BMC Chemistry, 2019).
Values after ≈ are worked out from the molar mass of the structure shown. Like-named read-outs stand apart in the source and are kept apart here.

Assays:
[1] = system: H. pylori bacterium (ATCC 43504, DSM 4867); assay: MIC against Helicobacter pylori, micro broth dilution technique; format: cell-based; details: NCCLS method
Description: (§1) Compounds M2b and M2i which were found potent in urease inhibition and antioxidant activity as well as in terms of docking score were tested further against antibacterial efficiency against Helicobacter pylori ATCC 43504, DSM 4867 using AHA as a standard and DMSO as control. […] It could be concluded that compound M2i indicated excellent antibacterial action against H. Pylori, antioxidant and urease inhibitory activity.
(§2) Novel synthesized derivatives were investigated against H. pylori bacterium (ATCC 43504 DSM 4867, AHA as standard) for their antibacterial activity by using Well diffusion technique. The stock solution of compounds in DMSO (1000 μg/mL) were prepared. Cell suspension was prepared from culture grown on BHI broth. The cell suspensions of all the cultures were adjusted to 1–2 × 10^5cells/ml. Helicobacter pylori (100 µl) was inoculated by spread plate technique on agar plates (90 mm). Agar wells (5 mm) were made on H. pylori inoculated media and impregnated with 2500 µg of each sample and standard which were incubated @ 35 °C for 24–48 h with 5% CO2 and observed for zone of inhibition around the well. MIC was determined against Helicobacter pylori by micro broth dilution technique as per NCCLS method.

[2] = system: H. pylori bacterium (ATCC 43504, DSM 4867); assay: Anti-H. pylori activity, well diffusion technique; format: cell-based, Helicobacter pylori; details: 2500 µg per well, 24–48 h, 35 °C
Description: as §1, §2

[3] = DPPH radical scavenging (antioxidant) assay; details: DPPH 300 µM, 30 min, mean SEM
Source text: (§3) The novel synthesized Morin derivatives were examined for in- vitro urease inhibitory action by determining the ammonia concentration released during the reaction by indophenol technique as described by Weatherburn as well as for antioxidant nature by determining the ability of compounds to donate hydrogen and electrons using DPPH method.
DPPH method was adopted for measuring the antioxidant nature of the synthesized derivatives. According to this method synthesized compounds were allowed to react for 0.5 h. at 37 °C with stable free radical, 1, 1-diphenyl-2-picrylhydrazyl radical (DPPH). The DPPH was taken in a concentration of 300 µM. Decrease in value of absorption at […] was measured after the period of incubation using a microplate reader using ascorbic acid as a standard. Molecule which can donate a proton to DPPH and cause its reduction act as an antioxidant. Following reduction deep violet coloured DPPH solution changes to yellow depending upon the nature of antioxidant compound, which brings a measurable decrease in value of absorption at 517 nm. The proton or electron donating capacity of the derivative was estimated from the fading of deep purple colored methanolic solution of 1, 1-diphenylpicrylhydrazyl (DPPH). Incubation of mixture was done at room temperature for 30 min and measurements were done at 517 against blank. Calculation of percentage inhibition was done by following formula: I\% =AControl-ASample/AControl×100 where, Acontrol is control absorbance; Asample is test absorbance

Jack bean urease = biological target: T1, Jack bean urease (Canavalia ensiformis, UniProt P07374); assay: biochemical
T1 construct: purchased Sigma Aldrich
T1 sequence (P07374 whole entry, looked up): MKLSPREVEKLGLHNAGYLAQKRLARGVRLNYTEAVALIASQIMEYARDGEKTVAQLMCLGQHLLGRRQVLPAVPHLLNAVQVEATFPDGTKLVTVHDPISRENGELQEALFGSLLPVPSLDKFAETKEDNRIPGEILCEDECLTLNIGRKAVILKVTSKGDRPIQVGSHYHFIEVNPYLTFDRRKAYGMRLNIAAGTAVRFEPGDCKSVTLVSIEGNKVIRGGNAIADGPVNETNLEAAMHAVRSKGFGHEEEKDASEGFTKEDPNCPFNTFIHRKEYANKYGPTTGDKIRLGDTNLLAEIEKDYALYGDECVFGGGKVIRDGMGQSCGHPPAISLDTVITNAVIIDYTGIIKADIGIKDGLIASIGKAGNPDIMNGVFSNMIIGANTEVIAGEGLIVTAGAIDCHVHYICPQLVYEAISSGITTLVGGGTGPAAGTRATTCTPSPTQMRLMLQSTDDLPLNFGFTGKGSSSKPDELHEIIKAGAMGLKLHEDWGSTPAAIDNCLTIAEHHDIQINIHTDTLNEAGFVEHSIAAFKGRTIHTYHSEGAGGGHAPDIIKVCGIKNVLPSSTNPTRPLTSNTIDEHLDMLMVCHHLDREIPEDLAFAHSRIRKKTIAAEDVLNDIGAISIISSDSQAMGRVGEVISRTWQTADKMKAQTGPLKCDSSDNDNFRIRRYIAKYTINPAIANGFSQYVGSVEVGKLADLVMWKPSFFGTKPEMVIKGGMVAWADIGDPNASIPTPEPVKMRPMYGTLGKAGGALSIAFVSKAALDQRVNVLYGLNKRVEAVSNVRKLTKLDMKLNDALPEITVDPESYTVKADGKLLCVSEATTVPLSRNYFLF
Source text: as §3
Urease enzyme inhibition investigation studies for all synthesized compounds were done by the method developed by Weatherburn named Indophenol against Jack Bean Urease. Briefly, incubation of solution of Jack bean protein 25 μL was done at temperature of 30 °C for a period of 15 min with 55 μL of buffers solution having 100 mM urea and 5 μL of test solution in 96-well plates. 45 μL phenol solution composing phenol 1% w/v and solution of sodium nitroprusside 0.005% w/v and alkali reagent 70 μL composed of sodium hydroxide 0.5% w/v and active sodium hypochloride solution 0.1% were mixed to every well. The measurement of increase in absorption at 625 nm was done after 50 min by help of a microplate reader (Molecular Device, USA). Readings were recorded in triplicate set in a final volume of 200 μL using thiourea as standard. Each assay was performed at pH 8.2 (0.01 M K2HPO4.3H2O, 0.01 M […] and 1 mM EDTA). Calculation of Inhibition in percentage of synthesized derivatives was done by the formula given as: I\% =AControl-ASample/AControl×100 where, Acontrol is control absorbance; Asample is test absorbance

[4] = read-out: IC50 urease inhibition, Jack bean urease, indophenol method, pH 8.2, mean SEM

SMILES	IC50 [3]	IC50 (Jack bean urease)	further results
CC(=O)NO [AHA, acetohydroxamic acid]	–	–	MIC [1]: 1000 µg/mL (≈ 13.3 mM); zone of inhibition [2]: 9.00 ± 0.50 mm
O=C1O[C@H]([C@@H](O)CO)C(O)=C1O [Ascorbic acid, reference compound]	8.59 ± 0.004 µM	–	–
Oc1ccc(-c2oc3cc(O)cc(O)c3c(=NC(=S)Nc3ccccc3)c2O)c(O)c1 [Compound M2a, N-((4E)-2-(2,4-dihydroxyphenyl)-3,5,7-trihydroxy-4H-chromen-4-ylidene)-N-phenylthiourea]	7.795 ± 0.003 µM	12.71 ± 0.027 µM	–
Oc1ccc(-c2oc3cc(O)cc(O)c3c(=NC(=S)Nc3ccccc3Cl)c2O)c(O)c1 [Compound M2b, N-(2-chlorophenyl)-N-((4E)-2-(2,4-dihydroxyphenyl)-3,5,7-trihydroxy-4H-chromen-4-ylidene)thiourea]	7.37 ± 0.024 µM	–	–
O=[N+]([O-])c1ccccc1NC(=S)N=c1c(O)c(-c2ccc(O)cc2O)oc2cc(O)cc(O)c12 [Compound M2c, N-((4E)-2-(2,4-dihydroxyphenyl)-3,5,7-trihydroxy-4H-chromen-4-ylidene)-N-(2-nitrophenyl)thiourea]	10.18 ± 0.006 µM	–	IC50 (Jack bean urease; [4]): 19.5 ± 0.005 µM
O=[N+]([O-])c1cccc(NC(=S)N=c2c(O)c(-c3ccc(O)cc3O)oc3cc(O)cc(O)c23)c1 [Compound M2d, N-((4E)-2-(2,4-dihydroxyphenyl)-3,5,7-trihydroxy-4H-chromen-4-ylidene)-N-(3-nitrophenyl)thiourea]	11.56 ± 0.013 µM	–	IC50 (Jack bean urease; [4]): 20.41 ± 0.031 µM
O=[N+]([O-])c1ccc(NC(=S)N=c2c(O)c(-c3ccc(O)cc3O)oc3cc(O)cc(O)c23)cc1 [Compound M2e, N-((4E)-2-(2,4-dihydroxyphenyl)-3,5,7-trihydroxy-4H-chromen-4-ylidene)-N-(4-nitrophenyl)thiourea]	8.744 ± 0.008 µM	–	IC50 (Jack bean urease; [4]): 20.2 ± 0.01 µM
NC(=S)N/N=c1\c(O)c(-c2ccc(O)cc2O)oc2cc(O)cc(O)c12 [Compound M3, (1Z)-1-(3,5,7-trihydroxy-2-(2,4-dihydroxyphenyl)-4H-chromen-4-ylidene)thiosemicarbazide]	11.9 ± 0.031 µM	17.9 ± 0.007 µM	–
Oc1ccc(-c2oc3cc(O)cc(O)c3/c(=N/C(=S)NNc3ccccc3)c2O)c(O)c1 [Compound M4, (4Z)-4-(3,5,7-trihydroxy-2-(2,4-dihydroxyphenyl)-4H-chromen-4-ylidene)-1-phenylthiosemicarbazide]	8.099 ± 0.018 µM	18.96 ± 0.011 µM	–
Oc1ccc(-c2oc3cc(O)cc(O)c3/c(=N/Nc3ccccc3)c2O)c(O)c1 [Compound M5, (4Z)-2-(2,4-dihydroxyphenyl)-4-(2-phenylhydrazinylidene)-4H-chromene-3,5,7-triol]	8.78 ± 0.008 µM	17.68 ± 0.08 µM	–
O=c1c(O)c(-c2ccc(O)cc2O)oc2cc(O)cc(O)c12 [Morin, 3,5,7, 2′, 4′-pentahydroxyflavone]	12.83 ± 0.028 µM	21.77 ± 0.016 µM	–
NC(N)=S [Thiourea, reference compound]	–	–	IC50 (Jack bean urease; Jack bean urease, indophenol method, pH 8.2, mean SEM, read-out: IC50 urease inhibition): 22.8 ± 0.011 µM
